≈ marks a conversion by molar mass, not a printed value.
test system: not listed separately; experiment: Activation of calcium ATPase in sarcoplasmic reticulum at 100 uM

Row | Activity [%] | Compound
1 | 30 | CCCCCCCCCCCCCC/C=C/C(O)C(=O)N[C@@H](CO)[C@H](O)CCCCCCCCCCCCCCC (some centres undefined) [SYMBIORAMIDE]

biological target: not listed separately; experiment: Inhibition of sodium potassium ATPase activity

Row | IC50 [µM] | Compound
2 | 20 | CC/C=C\C/C=C\C/C=C\C/C=C\CCCCC(=O)OCC(CO[C@@H]1O[C@H](CO[C@H]2O[C@H](CO)[C@H](O)[C@H](O)[C@H]2O)[C@H](O)[C@H](O)[C@H]1O)OC(=O)CCCC/C=C\C/C=C\C/C=C\C/C=C\CC (some centres undefined)
3 | 20 | CC/C=C\C/C=C\C/C=C\C/C=C\CCCCC(=O)OCC(CO[C@@H]1O[C@H](CO)[C@H](O)[C@H](O)[C@H]1O)OC(=O)CCCC/C=C\C/C=C\C/C=C\C/C=C\CC (some centres undefined)
4 | 20 | CC/C=C\C/C=C\C/C=C\C/C=C\CCCCC(=O)OCC(O)CO[C@@H]1O[C@H](CO)[C@H](O)[C@H](O)[C@H]1O (some centres undefined)

test system: L1210; experiment: Antitumor activity against mouse L1210 cells; assay type: functional, cell-based

Row | IC50 [µg/mL] | Compound
5 | 2.4 (≈ 4.52 µM) | C=C1C/C=C/[C@H](O)[C@@H](O)C(=C)[C@@H](O)[C@H](O)C(=C)C/C=C/C(C)=C/C(=O)O[C@H]([C@@H]2O[C@H]2[C@@H](C)CCC)[C@@H](C)C1 [AMPHIDINOLIDE A]
6 | 0.00014 (≈ 0.000249 µM) | C=C1/C=C(\C)[C@](C)(O)C[C@H](O)CC(=O)[C@H](O)[C@@H](O)[C@H](C)C[C@H](C)OC(=O)/C(C)=C/CC/C=C/[C@@H]2O[C@H]2C[C@H](C)C1 [AMPHIDINOLIDE B]
7 | 0.0058 (≈ 0.00811 µM) | C=C1/C=C(\C)[C@@H](C)[C@@H](O)CC(=O)[C@@H](C)CC(=O)C[C@H]2CC[C@@H](O2)[C@H](/C=C/C=C(\C)[C@@H](O)C(=C)CCCC)OC(=O)C[C@@H]2O[C@H](C[C@H]2C)[C@H](O)[C@@H]1O [AMPHIDINOLIDE C]
8 | 0.019 (≈ 0.0338 µM) | C=C1/C=C(\C)[C@](C)(O)C[C@H](O)CC(=O)[C@@H](O)[C@@H](O)[C@H](C)C[C@H](C)OC(=O)/C(C)=C/CC/C=C/[C@@H]2O[C@H]2C[C@H](C)C1 [AMPHIDINOLIDE D]
9 | 9.5 (≈ 16.3 µM) | CCCCCCCCCCCCCC/C=C/C(O)C(=O)N[C@@H](CO)[C@H](O)CCCCCCCCCCCCCCC (some centres undefined) [SYMBIORAMIDE]
